ChEMBL document CHEMBL4507303, “Data for DCP probe TP-004” (2021)

Experiments:
[1] = molecular target: Maternal embryonic leucine zipper kinase (Homo sapiens) (UniProt Q14680); details: Compound concentration 1000.0 nM
[2] = molecular target: Mitogen-activated protein kinase 7 (Homo sapiens) (UniProt Q13164); details: Compound concentration 1000.0 nM
[3] = molecular target: Tyrosine-protein kinase Lyn (Homo sapiens) (UniProt P07948); details: Compound concentration 1000.0 nM
[4] = molecular target: Inhibitor of nuclear factor kappa-B kinase subunit alpha (Homo sapiens) (UniProt O15111); details: Compound concentration 1000.0 nM
Sequence of Inhibitor of nuclear factor kappa-B kinase subunit alpha (Homo sapiens) (O15111 whole entry, the tested form may be a part): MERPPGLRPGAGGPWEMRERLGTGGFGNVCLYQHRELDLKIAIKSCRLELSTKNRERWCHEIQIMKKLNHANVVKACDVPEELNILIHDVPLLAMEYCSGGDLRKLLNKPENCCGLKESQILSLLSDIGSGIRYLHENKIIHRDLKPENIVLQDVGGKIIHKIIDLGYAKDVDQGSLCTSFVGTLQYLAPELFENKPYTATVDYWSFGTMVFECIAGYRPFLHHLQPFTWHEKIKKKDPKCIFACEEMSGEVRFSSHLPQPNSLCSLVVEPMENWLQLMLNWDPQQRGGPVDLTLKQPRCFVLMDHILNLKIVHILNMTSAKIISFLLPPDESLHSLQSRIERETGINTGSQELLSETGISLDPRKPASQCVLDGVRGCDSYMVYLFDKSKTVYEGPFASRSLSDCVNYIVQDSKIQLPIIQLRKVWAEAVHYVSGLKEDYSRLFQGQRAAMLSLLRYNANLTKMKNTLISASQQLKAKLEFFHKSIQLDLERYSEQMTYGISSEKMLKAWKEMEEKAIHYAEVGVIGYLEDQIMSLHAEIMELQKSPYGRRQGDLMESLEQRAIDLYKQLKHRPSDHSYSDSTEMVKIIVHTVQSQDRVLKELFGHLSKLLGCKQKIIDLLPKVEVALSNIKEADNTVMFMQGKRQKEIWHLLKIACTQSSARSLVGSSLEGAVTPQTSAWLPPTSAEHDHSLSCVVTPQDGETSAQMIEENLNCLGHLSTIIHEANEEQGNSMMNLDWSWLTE

[5] = molecular target: Ankyrin repeat and protein kinase domain-containing protein 1 (Homo sapiens) (UniProt Q8NFD2); details: Compound concentration 1000.0 nM
[6] = test system: Epidermal growth factor receptor (Homo sapiens), P00533 [UNDEFINED MUTATION]; details: Compound concentration 1000.0 nM
[7] = test system: Mast/stem cell growth factor receptor Kit (Homo sapiens), P10721 [D816H]; details: Compound concentration 1000.0 nM
Sequence of Mast/stem cell growth factor receptor Kit (Homo sapiens), P10721 [D816H] (P10721 whole entry D816H): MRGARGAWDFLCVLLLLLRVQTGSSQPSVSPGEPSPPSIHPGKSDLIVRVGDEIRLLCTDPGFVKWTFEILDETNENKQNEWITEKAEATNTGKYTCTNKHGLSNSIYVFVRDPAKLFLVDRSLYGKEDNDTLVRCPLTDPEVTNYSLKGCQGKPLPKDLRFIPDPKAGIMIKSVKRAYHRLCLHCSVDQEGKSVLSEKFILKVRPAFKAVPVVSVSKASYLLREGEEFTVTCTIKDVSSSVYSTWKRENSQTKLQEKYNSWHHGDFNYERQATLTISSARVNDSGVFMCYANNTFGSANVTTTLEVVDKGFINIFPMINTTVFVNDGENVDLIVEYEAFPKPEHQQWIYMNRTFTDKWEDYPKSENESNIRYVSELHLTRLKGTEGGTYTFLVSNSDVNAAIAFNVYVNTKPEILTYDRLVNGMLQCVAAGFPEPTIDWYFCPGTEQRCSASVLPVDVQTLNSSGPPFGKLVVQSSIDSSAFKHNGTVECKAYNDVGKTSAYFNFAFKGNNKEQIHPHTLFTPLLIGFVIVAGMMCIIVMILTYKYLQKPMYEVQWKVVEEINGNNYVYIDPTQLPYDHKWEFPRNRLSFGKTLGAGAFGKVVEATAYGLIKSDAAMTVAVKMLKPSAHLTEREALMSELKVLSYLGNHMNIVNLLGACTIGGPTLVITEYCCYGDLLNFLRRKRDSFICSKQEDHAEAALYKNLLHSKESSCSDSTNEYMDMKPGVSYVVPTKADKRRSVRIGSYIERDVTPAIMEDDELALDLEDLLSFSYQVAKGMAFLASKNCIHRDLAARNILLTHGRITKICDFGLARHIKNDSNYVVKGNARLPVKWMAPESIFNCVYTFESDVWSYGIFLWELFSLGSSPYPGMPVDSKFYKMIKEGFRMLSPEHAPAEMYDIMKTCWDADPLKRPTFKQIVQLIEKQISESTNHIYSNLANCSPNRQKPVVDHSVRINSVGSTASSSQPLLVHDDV

[8] = molecular target: Activin receptor type-2A (Homo sapiens) (UniProt P27037); details: Compound concentration 1000.0 nM
[9] = test system: Fibroblast growth factor receptor 3 (Homo sapiens), P22607 [G697C]; details: Compound concentration 1000.0 nM
[10] = molecular target: Receptor tyrosine-protein kinase erbB-3 (Homo sapiens) (UniProt P21860); details: Compound concentration 1000.0 nM
[11] = test system: Mast/stem cell growth factor receptor Kit (Homo sapiens), P10721 [V559D,V654A]; details: Compound concentration 1000.0 nM
Sequence of Mast/stem cell growth factor receptor Kit (Homo sapiens), P10721 [V559D,V654A] (P10721 whole entry V559D/V654A): as the sequence (P10721 whole entry D816H) above, with V559D, V654A, H816D counted along it

[12] = molecular target: Transient receptor potential cation channel subfamily M member 6 (Homo sapiens) (UniProt Q9BX84); details: Compound concentration 1000.0 nM
[13] = test system: Epidermal growth factor receptor (Homo sapiens), P00533 [L858R]; details: Compound concentration 1000.0 nM
[14] = molecular target: Aurora kinase B (Homo sapiens) (UniProt Q96GD4); details: Compound concentration 1000.0 nM
Sequence of Aurora kinase B (Homo sapiens) (Q96GD4 whole entry): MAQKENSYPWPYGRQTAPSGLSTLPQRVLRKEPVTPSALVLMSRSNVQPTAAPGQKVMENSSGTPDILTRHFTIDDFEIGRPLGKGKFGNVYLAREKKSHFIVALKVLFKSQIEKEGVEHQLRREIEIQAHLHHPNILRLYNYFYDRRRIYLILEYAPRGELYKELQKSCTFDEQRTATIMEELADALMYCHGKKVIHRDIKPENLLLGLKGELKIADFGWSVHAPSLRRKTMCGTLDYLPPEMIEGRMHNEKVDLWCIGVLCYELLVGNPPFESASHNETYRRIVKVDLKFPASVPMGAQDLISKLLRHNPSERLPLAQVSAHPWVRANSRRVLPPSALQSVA

[15] = molecular target: Serine/threonine-protein kinase Nek10 (Homo sapiens) (UniProt Q6ZWH5); details: Compound concentration 1000.0 nM
[16] = molecular target: NUAK family SNF1-like kinase 2 (Homo sapiens) (UniProt Q9H093); details: Compound concentration 1000.0 nM
Sequence of NUAK family SNF1-like kinase 2 (Homo sapiens) (Q9H093 whole entry): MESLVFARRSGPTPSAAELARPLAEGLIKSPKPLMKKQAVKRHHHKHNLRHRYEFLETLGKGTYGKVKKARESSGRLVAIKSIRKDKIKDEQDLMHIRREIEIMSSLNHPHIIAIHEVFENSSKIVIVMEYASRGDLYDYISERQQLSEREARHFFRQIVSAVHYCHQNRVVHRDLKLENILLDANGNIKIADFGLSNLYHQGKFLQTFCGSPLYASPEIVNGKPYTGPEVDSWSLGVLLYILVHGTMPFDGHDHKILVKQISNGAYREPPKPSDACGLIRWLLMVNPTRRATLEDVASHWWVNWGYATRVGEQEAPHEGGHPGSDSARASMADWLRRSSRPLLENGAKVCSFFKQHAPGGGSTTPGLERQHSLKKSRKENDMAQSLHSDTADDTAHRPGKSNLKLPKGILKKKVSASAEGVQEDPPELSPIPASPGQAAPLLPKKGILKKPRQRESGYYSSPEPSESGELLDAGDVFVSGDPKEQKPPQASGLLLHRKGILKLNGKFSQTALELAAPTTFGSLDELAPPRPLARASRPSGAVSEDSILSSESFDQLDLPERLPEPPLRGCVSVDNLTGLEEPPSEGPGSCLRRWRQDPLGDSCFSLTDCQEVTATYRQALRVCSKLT

[17] = molecular target: Serine/threonine-protein kinase SIK1 (Homo sapiens) (UniProt P57059); details: Compound concentration 1000.0 nM
[18] = molecular target: RAC-gamma serine/threonine-protein kinase (Homo sapiens) (UniProt Q9Y243); details: Compound concentration 1000.0 nM
[19] = test system: Epidermal growth factor receptor (Homo sapiens), P00533 [T790M]; details: Compound concentration 1000.0 nM
[20] = molecular target: cGMP-dependent protein kinase 2 (Homo sapiens) (UniProt Q13237); details: Compound concentration 1000.0 nM
[21] = molecular target: Activin receptor type-1 (Homo sapiens) (UniProt Q04771); details: Compound concentration 1000.0 nM
[22] = molecular target: Cyclin-dependent kinase 4 (Homo sapiens) (UniProt P11802); details: Compound concentration 1000.0 nM
[23] = molecular target: Insulin receptor-related protein (Homo sapiens) (UniProt P14616); details: Compound concentration 1000.0 nM
Sequence of Insulin receptor-related protein (Homo sapiens) (P14616 27-742 limits assumed): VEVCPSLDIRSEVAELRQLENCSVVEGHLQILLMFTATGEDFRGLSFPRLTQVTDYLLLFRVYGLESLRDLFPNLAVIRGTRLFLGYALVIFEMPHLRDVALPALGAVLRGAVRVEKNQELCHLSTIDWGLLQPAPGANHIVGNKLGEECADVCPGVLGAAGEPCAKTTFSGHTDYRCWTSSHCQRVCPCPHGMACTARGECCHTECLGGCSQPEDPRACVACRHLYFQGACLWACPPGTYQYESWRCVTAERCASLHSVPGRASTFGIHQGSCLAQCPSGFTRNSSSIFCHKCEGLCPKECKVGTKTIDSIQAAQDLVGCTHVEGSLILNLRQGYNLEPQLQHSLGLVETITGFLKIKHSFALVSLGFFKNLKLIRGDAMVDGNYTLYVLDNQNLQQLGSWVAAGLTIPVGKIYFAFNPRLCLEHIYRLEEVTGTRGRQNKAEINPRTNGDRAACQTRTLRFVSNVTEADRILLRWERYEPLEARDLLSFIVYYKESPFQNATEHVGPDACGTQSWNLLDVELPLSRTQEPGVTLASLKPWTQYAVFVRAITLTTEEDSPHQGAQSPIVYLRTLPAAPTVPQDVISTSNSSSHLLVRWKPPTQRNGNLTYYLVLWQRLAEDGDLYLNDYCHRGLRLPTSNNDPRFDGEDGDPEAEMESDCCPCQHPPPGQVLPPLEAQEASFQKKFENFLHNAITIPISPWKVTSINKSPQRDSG
Sequence of Insulin receptor-related protein (Homo sapiens) (P14616 747-1297 limits assumed): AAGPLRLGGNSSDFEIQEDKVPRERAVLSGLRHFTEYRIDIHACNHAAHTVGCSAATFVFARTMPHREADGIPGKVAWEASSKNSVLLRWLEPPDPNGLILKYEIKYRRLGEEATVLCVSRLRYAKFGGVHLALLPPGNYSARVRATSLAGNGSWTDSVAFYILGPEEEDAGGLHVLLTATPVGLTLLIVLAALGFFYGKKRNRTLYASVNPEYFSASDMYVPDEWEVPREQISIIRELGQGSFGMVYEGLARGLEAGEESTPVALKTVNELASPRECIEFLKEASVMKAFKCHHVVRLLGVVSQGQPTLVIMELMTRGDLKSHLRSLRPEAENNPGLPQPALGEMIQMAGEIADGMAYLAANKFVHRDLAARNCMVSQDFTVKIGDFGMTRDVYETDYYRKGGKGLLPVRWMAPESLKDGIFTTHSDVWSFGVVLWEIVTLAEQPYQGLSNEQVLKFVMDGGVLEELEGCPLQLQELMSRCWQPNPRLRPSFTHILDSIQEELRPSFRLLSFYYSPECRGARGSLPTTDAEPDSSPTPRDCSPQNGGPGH

[24] = molecular target: Serine/threonine-protein kinase Nek11 (Homo sapiens) (UniProt Q8NG66); details: Compound concentration 1000.0 nM
[25] = molecular target: Tyrosine-protein kinase receptor Tie-1 (Homo sapiens) (UniProt P35590); details: Compound concentration 1000.0 nM
[26] = molecular target: Ribosomal protein S6 kinase alpha-2 (Homo sapiens) (UniProt Q15349); details: Compound concentration 1000.0 nM
[27] = test system: Tyrosine-protein kinase ABL1 (Homo sapiens), P00519 [Q252H]; details: Compound concentration 1000.0 nM
[28] = molecular target: Tyrosine-protein kinase SYK (Homo sapiens) (UniProt P43405); details: Compound concentration 1000.0 nM
[29] = molecular target: 5-hydroxytryptamine receptor 3A (Homo sapiens) (UniProt P46098); details: Compound concentration 10.0 uM
Sequence of 5-hydroxytryptamine receptor 3A (Homo sapiens) (P46098 whole entry): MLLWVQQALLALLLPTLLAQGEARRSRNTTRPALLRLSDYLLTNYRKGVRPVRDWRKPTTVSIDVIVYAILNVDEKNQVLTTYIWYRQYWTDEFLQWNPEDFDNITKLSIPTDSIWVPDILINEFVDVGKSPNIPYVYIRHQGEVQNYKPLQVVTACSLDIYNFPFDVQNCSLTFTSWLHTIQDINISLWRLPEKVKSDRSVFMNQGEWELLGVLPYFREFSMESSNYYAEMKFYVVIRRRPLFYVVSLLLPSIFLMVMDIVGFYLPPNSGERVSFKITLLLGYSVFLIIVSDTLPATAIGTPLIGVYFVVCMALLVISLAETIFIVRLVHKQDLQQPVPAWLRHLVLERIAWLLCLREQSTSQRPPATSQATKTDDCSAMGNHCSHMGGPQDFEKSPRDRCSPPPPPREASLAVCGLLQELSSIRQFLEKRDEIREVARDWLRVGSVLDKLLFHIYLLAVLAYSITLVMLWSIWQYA

[30] = molecular target: Serine/threonine-protein kinase WNK3 (Homo sapiens) (UniProt Q9BYP7); details: Compound concentration 1000.0 nM
[31] = molecular target: Calcium/calmodulin-dependent protein kinase type II subunit beta (Homo sapiens) (UniProt Q13554); details: Compound concentration 1000.0 nM
[32] = molecular target: Dual specificity mitogen-activated protein kinase kinase 5 (Homo sapiens) (UniProt Q13163); details: Compound concentration 1000.0 nM
[33] = molecular target: Cyclin-dependent kinase-like 2 (Homo sapiens) (UniProt Q92772); details: Compound concentration 1000.0 nM
[34] = molecular target: Sodium-dependent dopamine transporter (Homo sapiens, UniProt Q01959); details: Compound concentration 10.0 uM
[35] = molecular target: Ephrin type-A receptor 8 (Homo sapiens) (UniProt P29322); details: Compound concentration 1000.0 nM
[36] = molecular target: Phosphatidylinositol 4-kinase beta (Homo sapiens) (UniProt Q9UBF8); details: Compound concentration 1000.0 nM
[37] = molecular target: Serine/threonine-protein kinase N2 (Homo sapiens) (UniProt Q16513); details: Compound concentration 1000.0 nM
[38] = molecular target: Tyrosine-protein kinase ZAP-70 (Homo sapiens) (UniProt P43403); details: Compound concentration 1000.0 nM
[39] = molecular target: Homeodomain-interacting protein kinase 4 (Homo sapiens) (UniProt Q8NE63); details: Compound concentration 1000.0 nM
[40] = molecular target: TGF-beta receptor type-2 (Homo sapiens) (UniProt P37173); details: Compound concentration 1000.0 nM
[41] = molecular target: Phosphatidylinositol 4,5-bisphosphate 3-kinase catalytic subunit delta isoform (Homo sapiens) (UniProt O00329); details: Compound concentration 1000.0 nM
[42] = molecular target: Alpha-1B adrenergic receptor (Homo sapiens) (UniProt P35368); details: Compound concentration 10.0 uM
[43] = molecular target: Hepatocyte growth factor receptor (Homo sapiens) (UniProt P08581); details: Compound concentration 1000.0 nM
[44] = molecular target: Ribosomal protein S6 kinase alpha-1 (Homo sapiens) (UniProt Q15418); details: Compound concentration 1000.0 nM
[45] = molecular target: Phosphatidylinositol 5-phosphate 4-kinase type-2 beta (Homo sapiens) (UniProt P78356); details: Compound concentration 1000.0 nM
Sequence of Phosphatidylinositol 5-phosphate 4-kinase type-2 beta (Homo sapiens) (P78356 whole entry): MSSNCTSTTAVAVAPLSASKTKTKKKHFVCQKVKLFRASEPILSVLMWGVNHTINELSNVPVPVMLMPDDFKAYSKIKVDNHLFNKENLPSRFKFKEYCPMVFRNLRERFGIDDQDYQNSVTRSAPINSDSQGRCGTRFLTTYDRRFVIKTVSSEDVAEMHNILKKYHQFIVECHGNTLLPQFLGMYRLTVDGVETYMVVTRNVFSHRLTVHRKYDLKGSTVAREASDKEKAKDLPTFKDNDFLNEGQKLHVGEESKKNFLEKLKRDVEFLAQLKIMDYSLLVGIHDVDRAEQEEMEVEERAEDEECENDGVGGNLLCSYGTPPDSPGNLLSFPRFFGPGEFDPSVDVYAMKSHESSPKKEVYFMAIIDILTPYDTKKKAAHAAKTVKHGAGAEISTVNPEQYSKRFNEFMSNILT

Structure (SMILES): Cc1nc(N2CC[C@@H](O)C2)ncc1-c1cc(C(F)(F)F)cc2[nH]ncc12 [TP-004]
- residual activity [1]: 100%
- residual activity [2]: 83%
- residual activity [3]: 100%
- residual activity [4]: 76%
- residual activity [5]: 85%
- residual activity [6]: 99%
- residual activity [7]: 53%
- residual activity [8]: 73%
- residual activity [9]: 90%
- residual activity [10]: 100%
- residual activity [11]: 94%
- residual activity [12]: 52%
- residual activity [13]: 77%
- residual activity [14]: 100%
- residual activity [15]: 96%
- residual activity [16]: 67%
- residual activity [17]: 90%
- residual activity [18]: 77%
- residual activity [19]: 93%
- residual activity [20]: 100%
- residual activity [21]: 80%
- residual activity [22]: 88%
- residual activity [23]: 87%
- residual activity [24]: 87%
- residual activity [25]: 91%
- residual activity [26]: 100%
- residual activity [27]: 91%
- residual activity [28]: 100%
- inhibition [29]: 6.06%
- residual activity [30]: 67%
- residual activity [31]: 100%
- residual activity [32]: 68%
- residual activity [33]: 100%
- inhibition [34]: 75.2%
- residual activity [35]: 61%
- residual activity [36]: 53%
- residual activity [37]: 72%
- residual activity [38]: 65%
- residual activity [39]: 82%
- residual activity [40]: 99%
- residual activity [41]: 72%
- inhibition [42]: 15.9%
- residual activity [43]: 100%
- residual activity [44]: 100%
- residual activity [45]: 100%
